Laboratory results published in US20220017486A1, “DOCK1-INHIBITING COMPOUND AND USE THEREOF” (KYUSHU UNIVERSITY, NATIONAL UNIVERSITY CORPORATION, priority 2018, published 2022).

Tests used:
[1] = tested on: mouse lung carcinoma cell line (3LL cells); assay: Cell invasion inhibition assay (Matrigel invasion chamber); format: cell-based
Method: In this Pharmacological Test, the inhibitory effect of each test compound on cell invasion response was evaluated using a mouse lung carcinoma cell line (3LL cells), a mouse pancreatic cancer cell line (PANC02 cells), and a human breast cancer cell line (MDA-MB-157 cells). Of these, the mouse lung carcinoma cell line (3LL) is a cancer cell line with mutant Ras (K-Ras (G12C)), and the human breast cancer cell line (MDA-MB-157) is a cancer cell line with mutant Rac (Rac1 (P29S)). The experiments were performed in BD BioCoat Matrigel invasion chambers (BD Biosciences).
Specifically, an upper chamber with a Matrigel-coated membrane insert (8 μm pores) at the bottom was equilibrated with DMEM (serum-free medium) for 120 minutes. Thereafter, 300 μL of a suspension of a cancer cell line in DMEM (serum-free) was placed in the upper chamber while 500 μL of DMEM (with 10 mass % FCS) was placed in the lower chamber. Each test compound dissolved in DMSO at a predetermined concentration was added to both the culture media in the upper and lower chambers. As a control, DMSO alone was added to both the culture media in the upper and lower chambers. In all of the experiments, the final DMSO concentration in the culture media was adjusted to 0.2 mass %.
The resulting products were cultured under 5% CO2 at 37° C. for 22 hours (3LL and PANC02 cells) or 48 hours (MDA-MB-157 cells). Then, the upper chamber was removed, and the culture medium was removed. Thereafter, non-invading cells remaining in the upper chamber were removed using a cotton swab, and the cells remaining outside the bottom of the upper chamber (cells that had invaded into the Matrigel, and passed through the membrane insert) were stained with Diff-Quick (Sysmex). After staining, the membrane inserts with Matrigel were cut out using a scalpel to prepare slides, and the number of invading cells was counted under an optical microscope.
The results were evaluated based on percent cell invasion (%: Invasion) and percent inhibition (%: Inhibition). The percent cell invasion was obtained by converting the number of invading cells in the presence of each test compound into a percentage, taking the number of invading cells in the control test, in which DMSO was added alone, as 100%; and the percent inhibition was obtained by deducting the percent cell invasion from 100.

[2] = tested on: mouse lung carcinoma cell line (3LL); assay: Tumor growth of subcutaneously transplanted mouse lung carcinoma cells; format: in vivo, C57BL/6 mice; details: 3LL s.c. in mice, 0.25 mg/300 μL, day 26 to day 29
Method: The mouse lung carcinoma cell line (3LL) was suspended in 200 μL of PBS(−), and transplanted (5×10^5 cells per mouse) into the dorsal subcutaneous region of C57BL/6 mice (6 weeks old). To a 6:1:1 mixture of PBS/Cremophor EL/ethanol, RT-22 as a representative of the compounds of the present invention was added to a concentration of 0.25 mg/300 μL, and the resulting mixture was loaded into an SMP-300 micro infusion pump (iPRECIO), which was subcutaneously implanted on the previous day of the transplantation, to perform continuous intravenous administration (n=5 mice). The control group was only administered with an equivalent volume of a solvent (a 6:1:1 mixture of PBS/Cremophor EL/ethanol) (n=6 mice). The transverse and longitudinal diameters of the tumor mass were measured over time for a period of 4 weeks from the start of administration, and the tumor volume (V) was calculated according to the formula: V=π/6x√((transverse diameter×longitudinal diameter)^3).

DOCK1 (DHR-2 domain) = target: T1, DOCK1 (DHR-2 domain) (Homo sapiens, UniProt Q14185); assay: In vitro GEF assay: Rac activation by DOCK1 DHR-2 domain; format: biochemical, mice and humans
T1 construct: polypeptide fragments corresponding to the DHR-2 domain of DOCK1 or DOCK2 from mice and humans; Histidine-SUMO (N); made in house; host or cells: E. coli Arctic express (DE3)
T1 sequence (Q14185 1207-1617 limits assumed): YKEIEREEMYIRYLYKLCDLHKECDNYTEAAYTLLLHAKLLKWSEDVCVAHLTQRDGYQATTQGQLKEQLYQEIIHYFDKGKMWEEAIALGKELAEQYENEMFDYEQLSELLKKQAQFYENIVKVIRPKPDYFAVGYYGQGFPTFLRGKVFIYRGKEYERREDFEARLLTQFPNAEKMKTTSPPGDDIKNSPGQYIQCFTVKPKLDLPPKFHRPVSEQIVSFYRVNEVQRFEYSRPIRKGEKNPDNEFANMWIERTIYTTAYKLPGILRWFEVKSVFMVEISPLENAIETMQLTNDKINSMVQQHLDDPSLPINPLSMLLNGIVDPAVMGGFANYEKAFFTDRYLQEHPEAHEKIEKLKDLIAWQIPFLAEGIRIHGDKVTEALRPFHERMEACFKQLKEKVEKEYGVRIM
Method: DOCK1 and DOCK2, i.e., DOCK-A subfamily members, both activate Rac by catalyzing the GTP-GDP exchange reaction for Rac via their DHR-2 domains. Therefore, in this Pharmacological Test, the inhibitory effect of the compounds of the present invention on Rac activation by DOCK1 or DOCK2 was assessed in an in vitro GEF assay by using polypeptide fragments corresponding to the DHR-2 domain of DOCK1 or DOCK2 from mice and humans. The in vitro GEF assay was performed using a labeled GTP (Bodipy-FL-GTP, Invitrogen), which has a property of increasing the fluorescence intensity when bound to Rac.
The polypeptide fragments corresponding to the DHR-2 domain of DOCK1 or DOCK2 were prepared by expression in E. coli Arctic express (DE3) cells as N-terminal. Histidine-SUMO tag-fused recombinant proteins, followed by purification by affinity column chromatography on nickel-NTA columns.
Rac was prepared by expression in E. coli BL21 (DE3) cells as an N-terminal GST tag-fused recombinant protein, followed by purification by affinity column chromatography on glutathione-Sepharose columns.
Each of the polypeptide fragments corresponding to the DHR-2 domain of DOCK1 or DOCK2, and a predetermined concentration of each test compound (the compounds of the present invention: 33 types of compounds; and comparative compound: TBOPP) dissolved in DMSO were incubated in a reaction solution A (pH 7.0), which contained 20 mM of MES-NaOH, 150 mM of NaCl, 10 mM of MgCl2, and 20 μM of GDP for 20 minutes at room temperature while being shielded from light to thus prepare GEF pretreated products. The final concentration of DMSO was adjusted to 1 mass % in all of the test samples. For a control test, a GEF pretreated product (control) was prepared by incubation in the same manner using DMSO with no test compounds, instead of the DMSO used above in which each test compound was dissolved.
Separately, Rac was added to the reaction solution A (pH 7.0) to a concentration of 15 μM, and was allowed to stand on for 30 min to form a GDP-Rac complex. Bodipy-FL-GTP was added to a concentration of 3.6 μM to 100 μL of the reaction solution A that contained the thus-prepared GDP-Rac complex, and equilibrated at 30° C. for 2 minutes. After equilibration, 50 μL of the GEF pretreated product prepared as described above was added and reacted at 30° C.
Changes in fluorescence intensity of Bodipy-FL-GTP in the reaction solutions were monitored using an EnSpire spectrofluorometer (Perkin Elmer) (excitation wavelength: 488 nm, fluorescence wavelength: 514 nm). The measured values were corrected so that the fluorescence intensity at the beginning of the reaction (0 sec) was 0. Then, an approximate curve (hyperbola) was obtained by plotting the calculated correction values on the y-axis and the time (t) on the x-axis using GraphPad Prism5 (GraphPad software), and the slope at t=0 to 10 seconds was defined as the initial velocity of the guanine nucleotide exchange reaction. The IC50 value was calculated taking the initial reaction velocity of the control, to which only a solvent (DMSO) was added, as 100%.
Based on the obtained results, columns A and B of FIG. 1, FIG. 2, FIG. 3-1, and FIG. 3-2 show the results evaluating the inhibitory effect on Rac activation by DOCK1 (DHR-2 domain) (IC50 value), and DOCK1-selective inhibitory effect (DOCK1/DOCK2 selectivity) of each test compound. The inhibitory effect on Rac activation by DOCK1 (DHR-2 domain) (IC50 value) was determined from the reaction inhibition curve plotted using values of Rac activation by the DOCK1 DHR-2 domain in the presence of various concentrations of the test compounds, taking the values of the control as 100%. […]

| DOCK1-selective inhibitory effect (DOCK1/DOCK2 selectivity) (DOCK1 (DHR-2 domain); IC50 for DOCK2 divided by IC50 for DOCK1) | IC50 (DOCK1 (DHR-2 domain); in vitro GEF assay, Bodipy-FL-GTP, DMSO control as 100%, read-out: inhibitory effect (IC50 value) on Rac activation by DOCK1 (DHR-2 domain)) [µM] | Structure (SMILES) | percent cell invasion inhibition ([1]; 22 hours, DMSO control as 100% invasion) [%] | tumor size reduced by, compared to the control group [2] | percent cell invasion inhibition compared with TBOPP ([1]; in words) | selective inhibitory activity against DOCK1 versus DOCK2 (DOCK1 (DHR-2 domain); in words, GEF assay DOCK1 vs DOCK2 DHR-2 domain) |
| --- | --- | --- | --- | --- | --- | --- |
| 2.6 | 8.4 | O=C(Cn1cc(S(=O)(=O)N2CCCC2)ccc1=O)c1ccc(-c2cccc(C(F)(F)F)c2)cc1 [TBOPP, 1-(2-oxo-2-(3′-(trifluoromethyl)-[1,1′-biphenyl]-4-yl)ethyl)-5-(pyrrolidin-1-ylsulfonyl)pyridin-2(1H)-one, reference compound] | 95 | 21-24% |  |  |
|  |  | CC(=O)c1cc(S(=O)(=O)N2CCCC2)cn1CC(=O)c1ccc(-c2cccc(C(F)(F)F)c2)cc1 [HS-16, 2-(2-acetyl-4-(pyrrolidin-1-yl-sulfonyl)-1H-pyrrol-1-yl)-1-(3′-(trifluoromethyl)-[1,1′-biphenyl]-4-yl)ethane-1-one] |  |  | higher percent cell invasion inhibition than TBOPP | higher selective inhibitory activity against DOCK1 than against DOCK2 |
